Experimental data taken from US20170121344A1 (Siga Technologies, Inc., priority 2009, published 2017).

System: Dengue-2 (Strain New Guinea C)
Assay: Viral yield assay against Dengue-2 in Vero cells
Format: cell-based, Dengue virus
Details: Dengue virus, DENV2; viral yield assay, Vero cells, MOI 0.1, 48 hours post infection; read-out: Activity (EC50 in μM) DENV-2
How it was run: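 Vero cells were infected with dengue virus at an MOI of 0.1, treated with compound or DMSO vehicle, and kept at 37° C. Supernatant virus was harvested 48 hours post infection and titered on Vero cells, with EC50 derived from yield reduction.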

`CCOc1ccccc1NC(=O)c1sc2nc(-c3ccc4c(c3)OCO4)ccc2c1N` [Compound 517, 3-amino-6-(1,3-benzodioxol-5-yl)-N-(2-ethoxyphenyl)thieno[2,3-b]pyridine-2-carboxamide] and `CCOc1ccccc1NC(=O)c1sc2nc(-c3ccc(OC)c(OC)c3)ccc2c1N` [Compound 509, 3-amino-6-(3,4-dimethoxyphenyl)-N-(2-ethoxyphenyl)thieno[2,3-b]pyridine-2-carboxamide] cannot be ordered by EC50: under 5 µM for the first, under 5 µM for the second.

`COc1ccc(NC(=O)c2sc3nc(-c4ccc(OC)c(OC)c4)ccc3c2N)c(C)c1` [Compound 500, 3-amino-6-(3,4-dimethoxyphenyl)-N-(4-methoxy-2-methyl-phenyl)thieno[2,3-b] pyridine-2-carboxamide] and `COc1ccc(-c2ccc3c(N)c(C(=O)Nc4ccc(Cl)c(C(F)(F)F)c4)sc3n2)cc1OC` [Compound 585, 3-amino-N-[4-chloro-3-(trifluoromethyl)phenyl]-6-(3,4-dimethoxyphenyl)thieno [2,3-b]pyridine-2-carboxamide] cannot be ordered by EC50: under 5 µM for the first, under 5 µM for the second.

First: Cc1ccc2c(N)c(C(=O)Nc3cccc(C(F)(F)F)c3)sc2n1 [Compound 367, 3-amino-6-methyl-N-(3-(trifluoromethyl)phenyl)thieno[2,3-b] pyridine-2-carboxamide]
Second: Nc1c(C(=O)Nc2cccc(C(F)(F)F)c2)sc2nc(-c3ccncc3)ccc12 [Compound 440, 3-amino-6-(4-pyridyl)-N-[3-(trifluoromethyl)phenyl]thieno[2,3-b] pyridine-2-carboxamide]
The EC50 of the first is lower: under 5 µM for the first, 5 to 25 µM for the second.

`N=C(Nc1cccc(C(F)(F)F)c1)c1sc2nc(-c3cccs3)ccc2c1N` [Compound 319, 3-amino-6-(2-thienyl)-N-[3-(trifluoromethyl)phenyl]thieno[2,3-b]pyridine-2-carboxamidine] and `COc1cccc(-c2ccc3c(N)c(C(=O)Nc4cccc(SC)c4)sc3n2)c1` [Compound 505, 3-amino-6-(3-methoxyphenyl)-N-(3-methylsulfanylphenyl)thieno[2,3-b] pyridine-2-carboxamide] cannot be ordered by EC50: under 5 µM for the first, under 5 µM for the second.

`CCSc1nc2ccc(NC(=O)c3sc4nc(-c5cccc(OC)c5)ccc4c3N)cc2s1` [Compound 567, 3-amino-N-(2-ethylsulfanyl-1,3-benzo-thiazol-6-yl)-6-(3-methoxphenyl)thieno [2,3-b]pyridine-2-carboxamide] and `Cc1ccc(-c2ccc3c(N)c(C(=O)Nc4ccccc4)sc3n2)cc1` [Compound 642, 3-amino-N-phenyl-6-(p-tolyl)thieno[2,3-b]pyridine-2-carboxamide] cannot be ordered by EC50: under 5 µM for the first, under 5 µM for the second.

Same assay, conditions: Dengue virus, Vero, 48 h, read-out: Activity (EC50 class) against Dengue-2 Virus in Vero cells

Compared with `Cc1cc(C)c2c(N)c(C(=O)Nc3ccccc3F)sc2n1` [Compound 178, 3-Amino-4,6-dimethyl-thieno[2,3-b]pyridine-2-carboxylic acid (2-fluoro-phenyl)-amide], `Cc1cc(C)c2c(N)c(C(=O)Nc3cccc(C(F)(F)F)c3)sc2n1` [Compound 9, 3-Amino-4,6-dimethyl-thieno[2,3-b]pyridine-2-carboxylic acid (3-trifluoromethyl-phenyl)-amide] is lower in EC50: over 25 µM for the first, under 5 µM for the second.

`CN(C)c1ccnc2sc(C(N)=O)c(N)c12` [Compound 166, 3-Amino-4-dimethylamino-thieno[2,3-b]pyridine-2-carboxylic acid amide] and `CCN(CC)C(=O)c1sc2nc3c(cc2c1N)CN(C(C)C)CC3` [Compound 271, 3-Amino-6-isopropyl-5,6,7,8-tetrahydro-thieno[2,3-b][1,6]naphthyridine-2-carboxylic acid diethylamide] cannot be ordered by EC50: over 25 µM for the first, over 25 µM for the second.

`CN1CCc2nc3sc(C(=O)NCc4ccccc4)c(N)c3cc2C1` [Compound 106, 3-Amino-6-methyl-5,6,7,8-tetrahydro-thieno[2,3-b][1,6]naphthyridine-2-carboxylic acid benzylamide] showed an EC50 of 5 to 25 µM.

Same assay, conditions: Dengue virus; Vero cells, MOI 0.1, harvested 48 hours post infection; read-out: Activity (EC50 class) against Dengue-2 Virus in Vero cells

First: Nc1c(C(=O)Nc2nnc(-c3ccccc3)s2)sc2nc3c(cc12)CCC3 [Compound 88, 3-Amino-6,7-dihydro-5H-cyclopenta[b]thieno[3,2-e]pyridine-2-carboxylic acid (5-phenyl-[1,3,4]thiadiazol-2-yl)-amide]
Second: Nc1c(C(=O)Nc2cc(C(F)(F)F)ccc2Cl)sc2nc3c(cc12)CCCC3 [Compound 193, 3-Amino-5,6,7,8-tetrahydro-thieno[2,3-b]quinoline-2-carboxylic acid (2-chloro-5-trifluoromethyl-phenyl)-amide]
The EC50 of the first is lower: 5 to 25 µM for the first, over 25 µM for the second. The first is the more potent here.

`CCN1CCc2nc3sc(C(=O)Nc4ccccc4OC(F)(F)F)c(N)c3cc2C1` [Compound 40, 3-Amino-6-ethyl-5,6,7,8-tetrahydro-thieno[2,3-b][1,6]naphthyridine-2-carboxylic acid (2-trifluoromethoxy-phenyl)-amide] and `CC(C)N1CCc2nc3sc(C(=O)Nc4ccc(OC(F)(F)F)cc4)c(N)c3cc2C1` [Compound 59, 3-Amino-6-isopropyl-5,6,7,8-tetrahydro-thieno[2,3-b][1,6]naphthyridine-2-carboxylic acid (4-trifluoromethoxy-phenyl)-amide] cannot be ordered by EC50: under 5 µM for the first, under 5 µM for the second.

`COCc1cc(C)nc2sc(C(=O)Nc3ccc(C)c(Cl)c3)c(N)c12` [Compound 229, 3-Amino-4-methoxymethyl-6-methyl-thieno[2,3-b]pyridine-2-carboxylic acid (3-chloro-4-methyl-phenyl)-amide] and `COCc1cc(C)nc2sc(C(=O)Nc3ccc4c(c3)OCO4)c(N)c12` [Compound 250, 3-Amino-4-methoxymethyl-6-methyl-thieno[2,3-b]pyridine-2-carboxylic acid benzo[1,3]dioxol-5-ylamide] cannot be ordered by EC50: over 25 µM for the first, over 25 µM for the second.

Compared with `COc1ccc(C)cc1NC(=O)c1sc2nc(C)cc(C)c2c1N` [Compound 259, 3-Amino-4,6-dimethyl-thieno[2,3-b]pyridine-2-carboxylic acid (2-methoxy-5-methyl-phenyl)-amide], `Cc1cc(C)c2c(N)c(C(=O)Nc3ccc4ccccc4c3)sc2n1` [Compound 83, 3-Amino-4,6-dimethyl-thieno[2,3-b]pyridine-2-carboxylic acid naphthalen-2-ylamide] is lower in EC50: over 25 µM for the first, 5 to 25 µM for the second.

`CCCCNC(=O)c1sc2nc3c(cc2c1NC(C)=O)COC(C)(C)C3` [Compound 237, 3-Acetylamino-7,7-dimethyl-7,8-dihydro-5H-pyrano[4,3-b]thieno[3,2-e]pyridine-2-carboxylic acid butylamide] and `CN1CCc2nc3sc(C(=O)Nc4nncs4)c(N)c3cc2C1` [Compound 278, 3-Amino-6-methyl-5,6,7,8-tetrahydro-thieno[2,3-b][1,6]naphthyridine-2-carboxylic acid [1,3,4]thiadiazol-2-ylamide] cannot be ordered by EC50: over 25 µM for the first, over 25 µM for the second.

Compared with `Cc1cc(NC(=O)c2sc3nc4c(c(-c5cccs5)c3c2N)CN(C)CC4)no1` [Compound 103, 3-Amino-6-methyl-4-thiophen-2-yl-5,6,7,8-tetrahydro-thieno[2,3-b][1,6]naphthyridine-2-carboxylic acid (5-methyl-isoxazol-3-yl)amide], `Cc1ccc(NC(=O)c2sc3nc4c(cc3c2N)CN(C)CC4)c(C)c1` [Compound 17, 3-Amino-6-methyl-5,6,7,8-tetrahydro-thieno[2,3-b][1,6]naphthyridine-2-carboxylic acid (2,4-dimethyl-phenyl)-amide] is lower in EC50: 5 to 25 µM for the first, under 5 µM for the second.

First: CN1CCc2nc3sc(C(=O)Nc4cccc(C#N)c4)c(N)c3cc2C1 [Compound 112, 3-Amino-6-methyl-5,6,7,8-tetrahydro-thieno[2,3-b][1,6]naphthyridine-2-carboxylic acid (3-cyano-phenyl)-amide]
Second: CN1CCc2nc3sc(C(=O)Nc4ccc(F)c(F)c4)c(N)c3cc2C1 [Compound 16, 3-Amino-6-methyl-5,6,7,8-tetrahydro-thieno[2,3-b][1,6]naphthyridine-2-carboxylic acid (3,4-difluoro-phenyl)-amide]
The EC50 of the first is higher: 5 to 25 µM for the first, under 5 µM for the second.

First: Nc1c(C(=O)N2CCOCC2)sc2nc(-c3ccccc3)cc(C(F)(F)F)c12 [Compound 89, (3-Amino-6-phenyl-4-trifluoromethyl-thieno[2,3-b]pyridin-2-yl)-morpholin-4-yl-methanone]
Second: Cc1ccc(NC(=O)c2sc3nc(C)cc(C(F)(F)F)c3c2N)cc1 [Compound 165, 3-Amino-6-methyl-4-trifluoromethyl-thieno[2,3-b]pyridine-2-carboxylic acid p-tolylamide]
The EC50 of the first is lower: 5 to 25 µM for the first, over 25 µM for the second. The first is the more potent here.

Compared with `CN1CCc2nc3sc(C(=O)NCc4ccc(F)cc4)c(N)c3cc2C1` [Compound 14, 3-Amino-6-methyl-5,6,7,8-tetrahydro-thieno[2,3-b][1,6]naphthyridine-2-carboxylic acid 4-fluoro-benzylamide], `Nc1c(C(=O)Nc2ccc([N+](=O)[O-])cc2)sc2nc3c(c(-c4ccco4)c12)CCCC3` [Compound 213, 3-Amino-4-furan-2-yl-5,6,7,8-tetrahydro-thieno[2,3-b]quinoline-2-carboxylic acid (4-nitro-phenyl)-amide] is higher in EC50: under 5 µM for the first, over 25 µM for the second.

Compared with `COc1ccccc1NC(=O)c1sc2nc(N3CCOCC3)c3c(c2c1N)CC(C)(C)OC3` [Compound 247, 1-Amino-8,8-dimethyl-5-morpholin-4-yl-8,9-dihydro-6H-7-oxa-3-thia-4-aza-cyclopenta[a]naphthalene-2-carboxylic acid (2-methoxy-phenyl)-amide], `COc1ccc(-c2cc(C3CC3)nc3sc(C(N)=O)c(N)c23)cc1` [Compound 7, 3-Amino-6-cyclopropyl-4-(4-methoxy-phenyl)-thieno[2,3-b]pyridine-2-carboxylic acid amide] is lower in EC50: over 25 µM for the first, under 5 µM for the second.

Molecule `CCCc1ccc2c(N)c(C(=O)Nc3nc(C(F)(F)F)ccc3Cl)sc2n1` [Compound 73, 3-Amino-6-propyl-thieno[2,3-b]pyridine-2-carboxylic acid (3-chloro-6-trifluoromethyl-pyridin-2-yl)-amide] has an EC50 of 5 to 25 µM.
